{"source": "ChEMBL document CHEMBL3390836", "about": "“Mannich- and LedererManasse-based analogues of the natural product S-(+)-curcuphenol as cancer proliferation and migration inhibitors” (Medchemcomm, 2012)", "format_in_all_cases": "functional", "key": {"[1]": {"test_system": "NCI-H460", "test": "Cytotoxicity against human NCI-H460 cells assessed as cell growth at 10^-4 M after 48 hrs by SRB assay relative to control", "settings": "NCI-H460, 48 h, read-out: Activity"}, "[2]": {"test": "Cytotoxicity against human HCT15 cells assessed as cell growth at 10^-4 M after 48 hrs by SRB assay relative to control", "settings": "HCT-15, 48 h, read-out: Activity"}, "[3]": {"test_system": "LOX IMVI", "test": "Cytotoxicity against human LOXIMVI cells after 48 hrs by SRB assay"}, "[4]": {"test": "Cytotoxicity against human OVCAR3 cells after 48 hrs by SRB assay", "settings": "OVCAR-3, 48 h"}, "[5]": {"test_system": "RXF 393", "test": "Cytotoxicity against human RXF393 cells after 48 hrs by SRB assay", "settings": "RXF 393, 48 h"}, "[6]": {"test_system": "SN12C", "test": "Cytotoxicity against human SN12C cells after 48 hrs by SRB assay"}, "[7]": {"test_system": "SF-295", "test": "Cytotoxicity against human SF295 cells assessed as cell growth at 10^-4 M after 48 hrs by SRB assay relative to control", "settings": "SF-295, 48 h, read-out: Activity"}, "[8]": {"test_system": "SF-539", "test": "Cytotoxicity against human SF539 cells assessed as cell growth at 10^-4 M after 48 hrs by SRB assay relative to control", "settings": "SF-539, 48 h, read-out: Activity"}, "[9]": {"test": "Cytotoxicity against human PC3 cells after 48 hrs by SRB assay", "settings": "PC-3, 48 h"}, "[10]": {"test_system": "MDA-MB-231", "test": "Cytotoxicity against human MDA-MB-231 cells after 48 hrs by SRB assay", "settings": "MDA-MB-231, 48 h"}, "[11]": {"test_system": "NCI-H226", "test": "Cytotoxicity against human NCI-H226 cells assessed as cell growth at 10^-8 M after 48 hrs by SRB assay relative to control", "settings": "NCI-H226, 48 h, read-out: Activity"}, "[12]": {"test_system": "HT-29", "test": "Cytotoxicity against human HT-29 cells assessed as cell growth at 10^-8 M after 48 hrs by SRB assay relative to control", "settings": "HT-29, 48 h, read-out: Activity"}, "[13]": {"test_system": "SK-MEL-2", "test": "Cytotoxicity against human SK-MEL-2 cells assessed as cell growth at 10^-4 M after 48 hrs by SRB assay relative to control", "settings": "SK-MEL-2, 48 h, read-out: Activity"}, "[14]": {"test": "Cytotoxicity against human SKOV3 cells assessed as cell growth at 10^-4 M after 48 hrs by SRB assay relative to control", "settings": "SK-OV-3, 48 h, read-out: Activity"}, "[15]": {"test_system": "TK-10", "test": "Cytotoxicity against human TK10 cells assessed as cell growth at 10^-4 M after 48 hrs by SRB assay relative to control", "settings": "TK-10, 48 h, read-out: Activity"}, "[16]": {"test_system": "MDA-MB-468", "test": "Cytotoxicity against human MDA-MB-468 cells assessed as cell growth at 10^-4 M after 48 hrs by SRB assay relative to control", "settings": "MDA-MB-468, 48 h, read-out: Activity"}, "[17]": {"test": "Cytotoxicity against human OVCAR4 cells assessed as cell growth at 10^-8 M after 48 hrs by SRB assay relative to control", "settings": "OVCAR-4, 48 h, read-out: Activity"}, "[18]": {"test": "Cytotoxicity against human NCI-ADR-RES cells assessed as cell growth at 10^-8 M after 48 hrs by SRB assay relative to control", "settings": "read-out: Activity"}, "[19]": {"test_system": "786-0", "test": "Cytotoxicity against human 786-0 cells assessed as cell growth at 10^-8 M after 48 hrs by SRB assay relative to control", "settings": "786-0, 48 h, read-out: Activity"}, "[20]": {"test_system": "COLO 205", "test": "Cytotoxicity against human COLO205 cells assessed as cell growth at 10^-7 M after 48 hrs by SRB assay relative to control", "settings": "COLO 205, 48 h, read-out: Activity"}, "[21]": {"test_system": "HCC 2998", "test": "Cytotoxicity against human HCC2998 cells assessed as cell growth at 10^-7 M after 48 hrs by SRB assay relative to control", "settings": "HCC 2998, 48 h, read-out: Activity"}, "[22]": {"test_system": "LOX IMVI", "test": "Cytotoxicity against human LOXIMVI cells assessed as cell growth at 10^-7 M after 48 hrs by SRB assay relative to control", "settings": "read-out: Activity"}, "[23]": {"test_system": "SK-MEL-2", "test": "Cytotoxicity against human SK-MEL-2 cells assessed as cell growth at 10^-7 M after 48 hrs by SRB assay relative to control", "settings": "SK-MEL-2, 48 h, read-out: Activity"}, "[24]": {"test_system": "A549", "test": "Cytotoxicity against human A549 cells after 48 hrs by SRB assay", "settings": "A549, 48 h"}, "[25]": {"test_system": "NCI-H322M", "test": "Cytotoxicity against human NCI-H322M cells after 48 hrs by SRB assay"}, "[26]": {"test_system": "SK-MEL-5", "test": "Cytotoxicity against human SK-MEL-5 cells assessed as cell growth at 10^-7 M after 48 hrs by SRB assay relative to control", "settings": "SK-MEL-5, 48 h, read-out: Activity"}, "[27]": {"test_system": "K562", "test": "Cytotoxicity against human K562 cells assessed as cell growth at 10^-6 M after 48 hrs by SRB assay relative to control", "settings": "K562, 48 h, read-out: Activity"}, "[28]": {"test_system": "A549", "test": "Cytotoxicity against human A549 cells assessed as cell growth at 10^-6 M after 48 hrs by SRB assay relative to control", "settings": "A549, 48 h, read-out: Activity"}, "[29]": {"test": "Cytotoxicity against human EKVX cells assessed as cell growth at 10^-6 M after 48 hrs by SRB assay relative to control", "settings": "read-out: Activity"}, "[30]": {"test_system": "NCI-H460", "test": "Cytotoxicity against human NCI-H460 cells assessed as cell growth at 10^-6 M after 48 hrs by SRB assay relative to control", "settings": "NCI-H460, 48 h, read-out: Activity"}, "[31]": {"test_system": "COLO 205", "test": "Cytotoxicity against human COLO205 cells assessed as cell growth at 10^-6 M after 48 hrs by SRB assay relative to control", "settings": "COLO 205, 48 h, read-out: Activity"}, "[32]": {"test_system": "SW-620", "test": "Cytotoxicity against human SW620 cells assessed as cell growth at 10^-6 M after 48 hrs by SRB assay relative to control", "settings": "SW-620, 48 h, read-out: Activity"}, "[33]": {"test_system": "IGROV-1", "test": "Cytotoxicity against human IGROV1 cells assessed as cell growth at 10^-6 M after 48 hrs by SRB assay relative to control", "settings": "IGROV-1, 48 h, read-out: Activity"}, "[34]": {"test": "Cytotoxicity against human OVCAR3 cells assessed as cell growth at 10^-6 M after 48 hrs by SRB assay relative to control", "settings": "OVCAR-3, 48 h, read-out: Activity"}, "[35]": {"test": "Cytotoxicity against human PC3 cells assessed as cell growth at 10^-6 M after 48 hrs by SRB assay relative to control", "settings": "PC-3, 48 h, read-out: Activity"}, "[36]": {"test": "Cytotoxicity against human EKVX cells assessed as cell growth at 10^-4 M after 48 hrs by SRB assay relative to control", "settings": "read-out: Activity"}}}
{"smiles": "CC(C)=CCC[C@H](C)c1ccc(C)c(CNCC2CCNCC2)c1O", "values": [{"measurement": "growth at 100 µM", "setting": "[1]", "value": -68, "unit": "%"}, {"measurement": "growth at 100 µM", "setting": "[2]", "value": -11, "unit": "%"}, {"measurement": "GI50", "setting": "[3]", "value": 3.85, "unit": "µM"}, {"measurement": "LC50 (concentration killing 50% of cells)", "setting": "[3]", "value": 16.5, "unit": "µM"}, {"measurement": "TGI", "setting": "[3]", "value": 7.96, "unit": "µM"}, {"measurement": "GI50", "setting": "[4]", "value": 8.44, "unit": "µM"}, {"measurement": "LC50", "setting": "[4]", "value": "> 25", "unit": "µM"}, {"measurement": "TGI", "setting": "[4]", "value": "> 25", "unit": "µM"}, {"measurement": "GI50", "setting": "[5]", "value": 3.7, "unit": "µM"}, {"measurement": "LC50 (concentration killing 50% of cells)", "setting": "[5]", "value": "> 25", "unit": "µM"}, {"measurement": "TGI", "setting": "[5]", "value": 13.4, "unit": "µM"}, {"measurement": "GI50", "setting": "[6]", "value": 12.9, "unit": "µM"}, {"measurement": "LC50", "setting": "[6]", "value": "> 25", "unit": "µM"}, {"measurement": "TGI", "setting": "[6]", "value": "> 25", "unit": "µM"}, {"measurement": "growth at 100 µM", "setting": "[7]", "value": -73, "unit": "%"}, {"measurement": "growth at 100 µM", "setting": "[8]", "value": -77, "unit": "%"}, {"measurement": "GI50", "setting": "[9]", "value": 6.88, "unit": "µM"}, {"measurement": "LC50", "setting": "[9]", "value": "> 25", "unit": "µM"}, {"measurement": "TGI", "setting": "[9]", "value": "> 25", "unit": "µM"}, {"measurement": "GI50", "setting": "[10]", "value": 3.48, "unit": "µM"}, {"measurement": "LC50", "setting": "[10]", "value": 19.3, "unit": "µM"}, {"measurement": "TGI", "setting": "[10]", "value": 8.19, "unit": "µM"}, {"measurement": "growth at 0.01 µM", "setting": "[11]", "value": 98, "unit": "%"}, {"measurement": "growth at 0.01 µM", "setting": "[12]", "value": 108, "unit": "%"}, {"measurement": "growth at 100 µM", "setting": "[13]", "value": -70, "unit": "%"}, {"measurement": "growth at 100 µM", "setting": "[14]", "value": 8, "unit": "%"}, {"measurement": "growth at 100 µM", "setting": "[15]", "value": -15, "unit": "%"}, {"measurement": "growth at 100 µM", "setting": "[16]", "value": -90, "unit": "%"}, {"measurement": "growth at 0.01 µM", "setting": "[17]", "value": 100, "unit": "%"}, {"measurement": "growth at 0.01 µM", "setting": "[18]", "value": 100, "unit": "%"}, {"measurement": "growth at 0.01 µM", "setting": "[19]", "value": 93, "unit": "%"}, {"measurement": "growth at 0.1 µM", "setting": "[20]", "value": 101, "unit": "%"}, {"measurement": "growth at 0.1 µM", "setting": "[21]", "value": 95, "unit": "%"}, {"measurement": "growth at 0.1 µM", "setting": "[22]", "value": 95, "unit": "%"}, {"measurement": "growth at 0.1 µM", "setting": "[23]", "value": 97, "unit": "%"}, {"measurement": "GI50", "setting": "[24]", "value": 7.27, "unit": "µM"}, {"measurement": "LC50", "setting": "[24]", "value": "> 25", "unit": "µM"}, {"measurement": "TGI", "setting": "[24]", "value": 24.9, "unit": "µM"}, {"measurement": "GI50", "setting": "[25]", "value": 7.02, "unit": "µM"}, {"measurement": "LC50", "setting": "[25]", "value": "> 25", "unit": "µM"}, {"measurement": "TGI", "setting": "[25]", "value": "> 25", "unit": "µM"}, {"measurement": "growth at 0.1 µM", "setting": "[26]", "value": 90, "unit": "%"}, {"measurement": "growth at 1 µM", "setting": "[27]", "value": 91, "unit": "%"}, {"measurement": "growth at 1 µM", "setting": "[28]", "value": 98, "unit": "%"}, {"measurement": "growth at 1 µM", "setting": "[29]", "value": 92, "unit": "%"}, {"measurement": "growth at 1 µM", "setting": "[30]", "value": 102, "unit": "%"}, {"measurement": "growth at 1 µM", "setting": "[31]", "value": 107, "unit": "%"}, {"measurement": "growth at 1 µM", "setting": "[32]", "value": 99, "unit": "%"}, {"measurement": "growth at 1 µM", "setting": "[33]", "value": 98, "unit": "%"}, {"measurement": "growth at 1 µM", "setting": "[34]", "value": 103, "unit": "%"}, {"measurement": "growth at 1 µM", "setting": "[35]", "value": 101, "unit": "%"}, {"measurement": "growth at 100 µM", "setting": "[36]", "value": 35, "unit": "%"}]}
